pIC50: −log10 of the molar value. Several values for one entry are separate records, joined by “and”; a condition that tells them apart may be missing. Equal entries are not always repeated.
What was measured:
c-Src kinase (human) = molecular target: T1, c-Src kinase (human) (Homo sapiens, UniProt P12931); test: c-Src Kinase Assay; assay type: biochemical; details: for inhibition at 2 µM / c-Src % Inhibition: test concentration of 2 μM, multiple values are separate assay results; for pIC50: read-out: c-Src IC50 (in parentheses); for c-Src % Inhibition: 2 µM
T1 construct: purchased Upstate Biotechnology, Lake Placid, N.Y
T1 sequence (P12931 whole entry): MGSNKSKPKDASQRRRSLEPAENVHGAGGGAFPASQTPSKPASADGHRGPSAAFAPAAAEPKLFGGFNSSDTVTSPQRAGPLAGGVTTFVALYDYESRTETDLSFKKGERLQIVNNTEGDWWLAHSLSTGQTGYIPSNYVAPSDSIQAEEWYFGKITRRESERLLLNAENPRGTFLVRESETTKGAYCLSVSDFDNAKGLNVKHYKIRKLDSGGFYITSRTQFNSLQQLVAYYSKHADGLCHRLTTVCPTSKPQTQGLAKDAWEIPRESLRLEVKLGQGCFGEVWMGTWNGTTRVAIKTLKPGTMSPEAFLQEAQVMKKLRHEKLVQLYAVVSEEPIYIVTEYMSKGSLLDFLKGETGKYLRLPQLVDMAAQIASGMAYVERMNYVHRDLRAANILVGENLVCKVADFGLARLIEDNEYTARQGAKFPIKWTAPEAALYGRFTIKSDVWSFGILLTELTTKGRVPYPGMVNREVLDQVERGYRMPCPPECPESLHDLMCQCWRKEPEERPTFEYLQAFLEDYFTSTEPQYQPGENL
Outline: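 Inhibition was read as 33P incorporation, counted on P30 filtermats, after a 40 min, 30° C reaction. Human c-Src acted on 100 μM Cdc2 peptide with 5 μM ATP (final), pH 7.0 MOPS/MgCl2. Values are percent inhibition at 2 μM compound, or IC50 where determined.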

Lyn kinase (human) = molecular target: T2, Lyn kinase (human) (Homo sapiens, UniProt P07948); test: Lyn Kinase Assay; assay type: biochemical; details: test concentration of 2 μM; for % Inhibition (Lyn): 2 µM
T2 construct: purchased Upstate Biotechnology, Lake Placid, N.Y
T2 sequence (P07948 whole entry): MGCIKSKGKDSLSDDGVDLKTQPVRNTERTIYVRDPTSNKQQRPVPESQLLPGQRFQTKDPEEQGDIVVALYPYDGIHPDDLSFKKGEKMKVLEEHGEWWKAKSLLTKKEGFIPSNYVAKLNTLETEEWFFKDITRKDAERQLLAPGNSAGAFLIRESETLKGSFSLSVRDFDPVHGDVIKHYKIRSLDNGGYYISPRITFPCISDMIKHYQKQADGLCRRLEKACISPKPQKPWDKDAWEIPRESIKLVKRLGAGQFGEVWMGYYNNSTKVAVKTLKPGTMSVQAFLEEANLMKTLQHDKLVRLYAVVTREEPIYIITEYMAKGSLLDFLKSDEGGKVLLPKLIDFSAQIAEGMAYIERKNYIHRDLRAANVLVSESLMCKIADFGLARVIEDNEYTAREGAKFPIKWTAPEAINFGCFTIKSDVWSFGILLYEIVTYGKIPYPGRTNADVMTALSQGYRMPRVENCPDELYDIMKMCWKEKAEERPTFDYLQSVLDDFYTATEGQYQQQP
Outline: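 Radiometric filter-binding assay with recombinant human Lyn, poly(Glu,Tyr) substrate (0.1 mg/mL final), 5 μM ATP plus γ-33P-ATP in MOPS pH 7.5/Mg acetate buffer; 40 min at 30 °C, stopped with phosphoric acid, counted by scintillation. Reported as percent inhibition at 2 μM, with IC50 (μM) where determined.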

HCT-116 colon carcinoma = test: Cell Proliferation Inhibition Assay, HCT-116 (14C-thymidine); assay type: cell-based; details: Homo sapiens, HCT-116 cell proliferation
Excerpt: Cell Proliferation Inhibition Assay
The ability of a test compound to inhibit unregulated cell proliferation may be determined by measuring incorporation of ^14C-labelled thymidine into newly synthesized DNA within cell lines derived from carcinomas originating from several tissues. Accordingly, the effect of a test compound on proliferation of cells with a variety of phenotypes may be determined.
Carcinoma cell lines used include the HeLa cervical adenocarcinoma from the American Type Culture Collection (ATCC Cat. #CCL2), A375 malignant melanoma (ATCC Cat. #CRL-1619), HCT-116 colon carcinoma (ATCC Cat. #CCL-247), SKBR3 breast carcinoma (ATCC Cat. #HTB-30) and BT474 breast carcinoma (ATCC Cat. #HTB-20).
The carcinoma cells were trypsinized and counted. The cells (3000-8000 count) were added to each well of a 96-well CytoStar tissue culture treated scintillating microplate (Amersham #RPNQ0160) in complete medium (100 μL) and the plate was then incubated in complete medium for 24 hrs at 37° C. in an inert atmosphere containing 5% CO2.
Test compound (1 μL) in 100% DMSO was added to the plate test-wells with DMSO only added to control-wells. The plate was incubated in complete medium for a second 24 hr period at 37° C. in an atmosphere containing 5% CO2.
An aliquot of a solution of Methyl ^14C-thymidine (56 mC/mmol) (NEN #NEC568 or AMersham #CFA532) and complete medium (20 uL to provide 0.2 μCl/well) was then added to each well and the plate was incubated for a third 24 hr period at 37° C. in an atmosphere containing 5% CO2.
The plate contents were then discarded, the plate washed twice with PBS (200 μL) and then PBS (200 μL) was added to each well. The plate was sealed and the degree of methyl ^14C-thymidine incorporation was quantified on a Packard Top Count.
Cell proliferation of the Hela cell line was measured using the ATP-Lite method as described in the ATP Lite Kit (Perkin-Elmer Kit Number 6106941) or the C^14 method as described above. Cell proliferation of the other cell lines was measured using the C^14 method.

Compound	inhibition at 2 µM (c-Src kinase (human)) [%]	inhibition at 2 µM (Lyn kinase (human)) [%]	pIC50 (HCT-116 colon carcinoma)	pIC50 (c-Src kinase (human))	c-Src % Inhibition (c-Src kinase (human))	% Inhibition (Lyn) (Lyn kinase (human)) [%]
O=C(O)c1sc2ncnc3c2c1NC(=O)N3c1ccc(OCc2ccccn2)c(Cl)c1 [Cpd 38, 5-[3-chloro-4-(pyridin-2-ylmethoxy)-phenyl]-4-oxo-4,5-dihydro-3H-1-thia-3,5,6,8-tetraaza-acenaphthylene-2-carboxylic acid]	7	-16	4.00	–	–	–
COc1ccc(NC(=O)c2sc3ncnc4c3c2NC(=O)N4c2ccc(OCc3ccccn3)c(Cl)c2)cc1OC [Cpd 48, 5-[3-chloro-4-(pyridin-2-ylmethoxy)-phenyl]-4-oxo-4,5-dihydro-3H-1-thia-3,5,6,8-tetraaza-acenaphthylene-2-carboxylic acid (3,4-dimethoxy-phenyl)-amide]	7	14	4.52	–	–	–
O=C(Nc1ccc(CN2CCOCC2)cc1)c1sc2ncnc3c2c1NC(=O)N3c1ccc(OCc2ccccn2)c(Cl)c1 [Cpd 52, 5-[3-chloro-4-(pyridin-2-ylmethoxy)-phenyl]-4-oxo-4,5-dihydro-3H-1-thia-3,5,6,8-tetraaza-acenaphthylene-2-carboxylic acid (4-morpholin-4-ylmethyl-phenyl)-amide]	1	16.2	4.00	–	–	–
CCOC(=O)c1sc2ncnc3c2c1NC(=O)N3c1ccc2c(cnn2Cc2cccc(F)c2)c1 [Cpd 78, 5-[1-(3-fluoro-benzyl)-1H-indazol-5-yl]-4-oxo-4,5-dihydro-3H-1-thia-3,5,6,8-tetraaza-acenaphthylene-2-carboxylic acid ethyl ester]	–	–	4.00	< 3.70	–	–
O=C(O)c1sc2ncnc3c2c1NC(=O)N3c1ccc2c(cnn2Cc2cccc(F)c2)c1 [Cpd 79, 5-[1-(3-fluoro-benzyl)-1H-indazol-5-yl]-4-oxo-4,5-dihydro-3H-1-thia-3,5,6,8-tetraaza-acenaphthylene-2-carboxylic acid]	-17	–	4.00	< 3.70	–	–
O=C(Nc1ccc(CN2CCCCC2)cc1)c1sc2ncnc3c2c1NC(=O)N3c1ccc2c(cnn2Cc2cccc(F)c2)c1 [Cpd 80, 5-[1-(3-fluoro-benzyl)-1H-indazol-5-yl]-4-oxo-4,5-dihydro-3H-1-thia-3,5,6,8-tetraaza-acenaphthylene-2-carboxylic acid (4-piperidin-1-ylmethyl-phenyl)-amide]	–	–	4.85	< 3.70	–	–
O=C(Nc1ccc(CN2CCCCC2)cc1)c1sc2ncnc3c2c1NC(=O)N3c1ccc2c(ccn2Cc2cccc(F)c2)c1 [Cpd 87, 5-[1-(3-fluoro-benzyl)-1H-indol-5-yl]-4-oxo-4,5-dihydro-3H-1-thia-3,5,6,8-tetraaza-acenaphthylene-2-carboxylic acid (4-piperidin-1-ylmethyl-phenyl)-amide]	–	–	5.43	< 3.70	–	–
CC(C)(C)OC(=O)N1CCC(NC(=O)c2sc3ncnc4c3c2NC(=O)N4c2ccc3c(ccn3Cc3cccc(F)c3)c2)CC1 [Cpd 91, 4-({5-[1-(3-fluoro-benzyl)-1H-indol-5-yl]-4-oxo-4,5-dihydro-3H-1-thia-3,5,6,8-tetraaza-acenaphthylene-2-carbonyl}-amino)-piperidine-1-carboxylic acid tert-butyl ester]	-37	7	5.00	–	–	–
CN1CCC(NC(=O)c2sc3ncnc4c3c2NC(=O)N4c2ccc3c(ccn3Cc3cccc(F)c3)c2)CC1 [Cpd 92, 5-[1-(3-fluoro-benzyl)-1H-indol-5-yl]-4-oxo-4,5-dihydro-3H-1-thia-3,5,6,8-tetraaza-acenaphthylene-2-carboxylic acid (1-methyl-piperidin-4-yl)-amide]	65	–	5.36	6.37	45%	–
O=C(NCCN1CCOCC1)c1sc2ncnc3c2c1NC(=O)N3c1ccc2c(ccn2Cc2cccc(F)c2)c1 [Cpd 93, 5-[1-(3-fluoro-benzyl)-1H-indol-5-yl]-4-oxo-4,5-dihydro-3H-1-thia-3,5,6,8-tetraaza-acenaphthylene-2-carboxylic acid (2-morpholin-4-yl-ethyl)-amide]	41	16	5.00	–	–	–
O=C(Nc1ccc(N2CCOCC2)cc1)c1sc2ncnc3c2c1NC(=O)N3c1ccc2c(ccn2Cc2cccc(F)c2)c1 [Cpd 94, 5-[1-(3-fluoro-benzyl)-1H-indol-5-yl]-4-oxo-4,5-dihydro-3H-1-thia-3,5,6,8-tetraaza-acenaphthylene-2-carboxylic acid (4-morpholin-4-yl-phenyl)-amide]	-39	3	4.00	–	–	–
O=C(NCCCN1CCOCC1)c1sc2ncnc3c2c1NC(=O)N3c1ccc2c(ccn2Cc2cccc(F)c2)c1 [Cpd 95, 5-[1-(3-fluoro-benzyl)-1H-indol-5-yl]-4-oxo-4,5-dihydro-3H-1-thia-3,5,6,8-tetraaza-acenaphthylene-2-carboxylic acid (3-morpholin-4-yl-propyl)-amide]	-15	18	5.00	–	–	–
CCOC(=O)c1sc2ncnc3c2c1NC(=O)N3c1ccc(Oc2ccc(F)cc2)cc1 [Cpd 101, 5-[4-(4-fluoro-phenoxy)-phenyl]-4-oxo-4,5-dihydro-3H-1-thia-3,5,6,8-tetraaza-acenaphthylene-2-carboxylic acid ethyl ester]	–	3	4.00	–	–	6
CCOC(=O)c1sc2ncnc3c2c1NC(=O)N3c1ccc(C)c(Br)c1 [Cpd 102, 5-(3-bromo-4-methyl-phenyl)-4-oxo-4,5-dihydro-3H-1-thia-3,5,6,8-tetraaza-acenaphthylene-2-carboxylic acid ethyl ester]	–	8	4.00	–	3% and 12%	13
CCOC(=O)c1sc2ncnc3c2c1NC(=O)N3c1cc(Br)ccc1C [Cpd 103, 5-(5-bromo-2-methyl-phenyl)-4-oxo-4,5-dihydro-3H-1-thia-3,5,6,8-tetraaza-acenaphthylene-2-carboxylic acid ethyl ester]	14	–	4.00	–	18%	–
Cc1ccc(N2C(=O)Nc3c(C(=O)Nc4ccc(CN5CCOCC5)cc4)sc4ncnc2c34)cc1Br [Cpd 108, 5-(3-bromo-4-methyl-phenyl)-4-oxo-4,5-dihydro-3H-1-thia-3,5,6,8-tetraaza-acenaphthylene-2-carboxylic acid (4-morpholin-4-ylmethyl-phenyl)-amide]	19	69	4.00	–	–	–
Cc1ccc(Br)cc1N1C(=O)Nc2c(C(=O)Nc3ccc(CN4CCOCC4)cc3)sc3ncnc1c23 [Cpd 109, 5-(5-bromo-2-methyl-phenyl)-4-oxo-4,5-dihydro-3H-1-thia-3,5,6,8-tetraaza-acenaphthylene-2-carboxylic acid (4-morpholin-4-ylmethyl-phenyl)-amide]	31	75	5.00	–	–	–
O=C(Nc1ccc(CN2CCOCC2)cc1)c1sc2ncnc3c2c1NC(=O)N3c1ccc(Oc2ccc(F)cc2)cc1 [Cpd 110, 5-[4-(4-fluoro-phenoxy)-phenyl]-4-oxo-4,5-dihydro-3H-1-thia-3,5,6,8-tetraaza-acenaphthylene-2-carboxylic acid (4-morpholin-4-ylmethyl-phenyl)-amide]	16	21	5.00	–	–	–
Cc1ccc(N2C(=O)Nc3c(C(=O)NC4CCN(C)CC4)sc4ncnc2c34)cc1Br [Cpd 116, 5-(3-bromo-4-methyl-phenyl)-4-oxo-4,5-dihydro-3H-1-thia-3,5,6,8-tetraaza-acenaphthylene-2-carboxylic acid (1-methyl-piperidin-4-yl)-amide]	-7	-2	5.00	–	–	–
